Experimental data as given in article PMC9147192, “Small Molecule Arranged Thermal Proximity Coaggregation (smarTPCA)—A Novel Approach to Characterize Protein–Protein Interactions in Living Cells by Similar Isothermal Dose–Responses” (International Journal of Molecular Sciences, 2022).

Target: T1, UBE2O (Homo sapiens, UniProt Q9C0C9)
T1 construct: endogenous in cells; host or cells: HL-60 (ATCC CCL-240)
T1 sequence (Q9C0C9 1-1292): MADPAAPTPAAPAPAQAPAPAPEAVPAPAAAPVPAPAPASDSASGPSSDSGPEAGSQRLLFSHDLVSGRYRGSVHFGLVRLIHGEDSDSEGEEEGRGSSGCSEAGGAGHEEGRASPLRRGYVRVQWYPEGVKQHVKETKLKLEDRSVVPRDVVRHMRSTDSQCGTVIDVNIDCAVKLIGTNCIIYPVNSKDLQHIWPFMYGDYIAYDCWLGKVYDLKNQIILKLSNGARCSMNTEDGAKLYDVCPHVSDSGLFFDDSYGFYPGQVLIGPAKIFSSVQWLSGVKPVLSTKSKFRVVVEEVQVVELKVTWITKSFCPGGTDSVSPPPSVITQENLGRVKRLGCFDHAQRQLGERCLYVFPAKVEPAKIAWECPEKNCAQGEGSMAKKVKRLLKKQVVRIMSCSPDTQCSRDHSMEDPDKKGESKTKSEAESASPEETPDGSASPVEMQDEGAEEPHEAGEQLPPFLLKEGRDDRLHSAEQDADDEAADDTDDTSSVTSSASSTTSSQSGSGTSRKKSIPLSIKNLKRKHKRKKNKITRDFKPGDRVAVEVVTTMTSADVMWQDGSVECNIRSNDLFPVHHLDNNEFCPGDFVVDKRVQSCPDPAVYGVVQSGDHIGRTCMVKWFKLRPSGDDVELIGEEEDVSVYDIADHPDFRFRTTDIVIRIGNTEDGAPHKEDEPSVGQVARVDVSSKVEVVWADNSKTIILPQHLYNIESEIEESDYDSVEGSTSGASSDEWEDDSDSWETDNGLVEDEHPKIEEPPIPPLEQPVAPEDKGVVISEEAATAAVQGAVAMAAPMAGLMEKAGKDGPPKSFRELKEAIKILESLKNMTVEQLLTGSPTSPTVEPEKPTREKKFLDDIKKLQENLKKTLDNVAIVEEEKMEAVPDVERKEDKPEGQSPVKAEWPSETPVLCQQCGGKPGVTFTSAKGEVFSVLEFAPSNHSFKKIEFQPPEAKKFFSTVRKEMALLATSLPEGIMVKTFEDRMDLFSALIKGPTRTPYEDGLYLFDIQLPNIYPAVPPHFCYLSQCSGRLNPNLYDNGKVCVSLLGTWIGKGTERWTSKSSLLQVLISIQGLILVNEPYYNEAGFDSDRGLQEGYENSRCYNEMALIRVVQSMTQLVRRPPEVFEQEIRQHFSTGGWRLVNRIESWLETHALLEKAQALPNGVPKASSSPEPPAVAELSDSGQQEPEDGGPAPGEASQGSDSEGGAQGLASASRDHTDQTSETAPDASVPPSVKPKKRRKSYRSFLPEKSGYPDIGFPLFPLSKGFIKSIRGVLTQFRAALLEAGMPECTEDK
Test: TPP-CCR in living HL-60 cells
Type: cell-based

**Q.** Which Hill slope (TPP-CCR, living cells, UBE2O) does the source give for `Cc1cnc(Nc2ccc(F)cc2Cl)nc1-c1c[nH]c(C(=O)N[C@H](CO)c2cccc(Cl)c2)c1` [ERK 11e] here?
**A.** The Hill slope was 0.37.

**Q.** And the “Hill slope (UBE2O)” value (living HL-60 cells, […] °C, TMT-MS)?
**A.** The value was 0.37.

**Q.** What about the EC50 (living HL-60 cells, […] °C, TMT-MS, read-out: pEC50 (UBE2O) (converted)) of the same molecule?
**A.** Its EC50 is 186 nM.
